The results in this text go back to patent publication US6465526B1, “Natural mixture composed of higher primary aliphatic alcohols obtained from bee wax for the treatment of gastric and duodenal ulcers that also present antiinflamatory activity” (Laboratories Dalmer SA, priority 1994, dated 2002).

The structures appear in SMILES notation. Marks after values point to notes of the source that are not given here.

Holding throughout (assay type): in vivo, Sprague Dawley rats
In data set [1] the test system is gastric ulcer induced by alcohol (60%) and indometacine (10 mg/kg). Kind of data set: gastric ulcer induced by alcohol (60%) and indometacine (10 mg/kg). As to the method: The objective of the present work is to determine if the protective effect of […]. against ulcer is dependent of prostaglandins or not. Male Sprague Dawley rats, weighting 150 to 200 g, were adapted to laboratory conditions for 7 days with water and food ad libitum, up to 48 h previous to the experiment, where food is suppressed. The animals were randomly distributed in 4 experimental groups. […]. was administered intraperitoneally in a 2% Tween 20/water suspension, cimetidine was dissolved in hot water and indomethacine in 5% sodium bicarbonate. […] […] after the animals were injected by i.p. route indomethacine was administered at 10 mg/kg by subcutaneous route. Half an hour later, was administered 60% alcohol and, an hour later, the animals were sacrificed. The stomachs were extracted, opened by the bigger curvature and measured the size of the ulcer using a 3× enlargement. Results were expressed in […]. In all cases, the comparison between the treated groups and the control one was realized using the non parametric U de Mann Whitney test.

The test system of the next data set is acid gastric secretion. Kind of data set: gastric acidity in the model of pilorous ligatured. The settings on record: 4 h after pilorous ligature. As to the method:
The results obtained in last examples sugest an action over ulcer induced by acid compounds dependent or independent. With the objective of discard the inhibitory effect over the inhibition of the acid gastric secretion was determined the action of […]. over this acid gastric secretion in the pilorous ligature model. Female Sprague Dawley rats, weighing 150 to 200 g were adapted to laboratory conditions for 15 days with water and food ad libitum. The animals were randomly distributed in different experimental groups and food was deprived 48 h previous to the ligature. […]. was administered intraperitoneally in a 2% Tween 20/water suspension. Cimetidine was dissolved in hot water and administered by the same route as […]. […] Rats were anaesthetized with ether and an incision, in the abdominal region was done, stomachs were extracted and pilorous were ligatured with thread. […], after that, the compound was administered by i.p. route and 3 mL of saline solution were injected by subcutaneous route. Four h later, the animals were sacrificed, intact stomachs were extracted, tweezed by the esophagus. The gastric content was centrifuged at 3000 min^-1 for 10 min and, later on, the volume was measured. The acidity of the gastric juice was measured using 0.1 mol/L NaOH and phenolphtalein as indicator. The comparison between the treated groups and the control one was realized using the non parametric U de Mann Whitney test.

For data set [2], the system named is pleuresy induced by carragenine. Kind of data set: pleuresy induced by carragenine. The settings on record: for Exudate volume: 1 h before carragenine, 5 h. As to the method:
Pleuresy by carragenine: Male Sprague Dawley rats were used (200-250 g) and adapted to laboratory conditions for 15 days with water and food ad libitum and were deprived of food 12 h previous to the experiment. M.H.A.A.B.W. was administered in a 10 mg/mL acacia gum/water suspension, as well as triacontanol, while indomethacine was dissolved in 5% sodium bicarbonate.
All the treatments were administered using gastric gavage one hour previous to the injection of carragenine. Rats were randomly distributed in the following experimental groups: 1) control (vehicle); 2, 3 and 4) M.H.A.A.B.W. at 25, 50 and 100 mg/kg respectively; 5) triacontanol at 50 mg/kg and 6) indomethacine at 10 mg/kg.
For the induction of the edema, rats were anesthesized with ether and 0.3 mL of carragenine in 1% of saline solution were injected in the pleural cavity. Five hours later, the animals were sacrificed and the exudate were colected, determining its volume. The percent of inhibition of the edema is calculated using the following formula:
Inhibition (%)=1−(VT)/(VC)×100
VT=volume of the edema of treated animals
VC=volume of the edema of control animals

In the next data set the test system is cotton granule. Kind of data set: model of cotton granule. The following applies: 3 mg/kg orally, 6 days. How it is done:
In order to corroborate the antiinflamatory effect of the […]. are used the pleuresy induced by carragenine and the granule by cotton models, those ones that constitute established models for the evaluation of antiinflamatory drugs. Granule by cotton: Male Sprague Dawley rats, weighing 200 to 250 g, were adapted to laboratory conditions in the same way as the last experiment. […]. was administered orally in a 2% Tween 20/water suspension, while administered orally in a 5% sodium bicarbonate. […] Rats were randomly distributed in 5 experimental groups: 1) control (vehicle); 2, 3, and 4) […]. at 25, 50 and 100 mg/kg respectively and 5) indomethacine at 3 mg/kg. Rats were, previously, anaesthetized with ether, doing an incision in the dorsal region. The […] cotton pellet of 50 mg was sub-cutaneously and applied with a local […] finally the injured is closed. […] The percent of inhibition was […] taking as reference the weight of the granule formed in the control group.

Where [3] appears, read: 25 mg/kg i.p., indomethacine 10 mg/kg s.c. + 60% alcohol.

`CN/C(=N/CCSCc1nc[nH]c1C)NC#N` [Cimetidine, cimetidine]: in data set [1] (setting [3]), the Inhibition (in general, the change of the read-out against control, counted positive when it falls) stood at 71.2% and the Ulcer is 14.6 +/− 5.64* mm. Besides, in the data set with acid gastric secretion (25 mg/kg i.p.), the Acidity is reported as 0,080 +/− 0,009* meq H^+/mL and the Gastric juice volume is given as 5,87 +/− 0,63* mL. Further, in the data set on acid gastric secretion (50 mg/kg i.p.), the Acidity is 0,083 +/− 0,006** meq H^+/mL and the Gastric juice volume is given as 5,83 +/− 0,38** mL.

In data set [2] (100 mg/kg oral (maximum dose assayed)), `CCCCCCCCCCCCCCCCCCCCCCCCCCCCCCO` [Triacontanol, 1-triacontanol] showed an Inhibition of 27.4%. In data set [2] (100 mg/kg oral), this compound came in with an Exudate volume of 0.96 ± 0.30 mL.

Turning to `COc1ccc2c(c1)c(CC(=O)O)c(C)n2C(=O)c1ccc(Cl)cc1` [Indometacine, indomethacine], the Ulcer in data set [1] (indometacine alone (10 mg/kg s.c.), no alcohol) was determined as 0 mm. In the data set on cotton granule, the Inhibition was determined as 69.3% and the Weight of granule is given as 79 + 0.02 ** mg. Also, in data set [2] (10 mg/kg oral), the Inhibition is 59.6% and the Exudate volume is given as 0.50 ± 0.15 mL.
